Structures can show the parent of a compound that is named as a salt. Where two headings read alike, the source gives them in different places.
Experiments:
ZIKV MR766 NS1 = assay: microbe, parasite or virus in culture; format: cell-based, Zika virus; conditions: Zika virus, HEK293, 48 h, read-out: NS1-IC50
Description: A one-step NS1 TR-FRET (Time-resolved fluorescence resonance energy transfer) assay for a screen of anti-ZIKV compounds was carried out. Human embryonic kidney cell line HEK293 cells were seeded into 384-well plates and infected with ZIKV MR766 at a MOI of 0.5 for 2 days. The FRET assay was performed with two clones of anti-NS1 antibody (ab) differentially labelled with donor and acceptor fluorophores.

HEK293 cells = assay: Toxicity IC50 (cell-killing activity) of the NS1 TR-FRET screen; format: cell-based, human; conditions: cell-killing activity
[1] = test system: ZIKV-induced caspase 3/7 activity in human astrocytes; assay: Caspase 3/7 activity assay, ZIKV-infected human astrocytes; format: cell-based; conditions: for IC50: read-out: Caspase 3 (IC50, uM) Astrocyte; for Emax: read-out: Caspase 3 (efficacy, %) Astrocyte
Description: (§1) Caspase-Glo 3/7 assay kit (catalog number G8092; Promega, Madison, Wis.) was used to detect caspase 3/7 activity. Reagents were reconstituted as described in the protocol from the manufacturer. Polystyrene plates (384-well and 1536-well; regular tissue culture treated and PDL coated) were purchased from Greiner Bio-One (Monroe, N.C.). Cells were seeded in 384- and 1536-well assay plates and cultured at 37° C. with 5% CO2 for 16 hours. ZIKV solution was added to cells, followed by incubation at 37° C. with 5% CO2 for 6 hours. Caspase-Glo 3/7 was added to each well, unless otherwise specified, and incubated at room temperature for 30 minutes. The luminescence intensity of the assay plates was measured using a ViewLux plate reader (PerkinElmer). Data were normalized by using the cell-containing wells without ZIKV as a negative control (0% induction of caspase 3/7 activity) and wells containing ZIKV infected cells that induced caspase 3/7 activity were used as a positive control (100% induction of caspase 3/7 activity). […]
(§2) Caspase-Glo 3/7 assay kit (Promega) was used to detect caspase 3/7 activity. Reagents were reconstituted as described in the protocol from the manufacturer. Cells were seeded in 384- and 1536-well assay plates and cultured at 37° C. with 5% CO2 for 16 hours. ZIKV solution was added to cells, followed by incubation at 37° C. with 5% CO2 for 6 hours. Caspase-Glo 3/7 was added to each well at a 1:1 ratio, unless otherwise specified, and incubated at room temperature for 30 minutes. The luminescence intensity of the assay plates was measured using a ViewLux plate reader (PerkinElmer). Data was normalized by using the cell-containing wells without ZIKV as a negative (0% induction of caspase 3/7 activity) control and wells containing ZIKV infected cells that induced caspase 3/7 activity were used as a positive control (100% induction of caspase 3/7 activity). […]

[2] = test system: ZIKV-induced caspase 3/7 activity in SNB-19 cells; assay: Caspase 3/7 activity assay, ZIKV-infected SNB-19 cells; format: cell-based
Description: as §1, §2

[3] = test system: ZIKV-induced caspase 3/7 activity in hNPCs; assay: Caspase 3/7 activity assay, ZIKV-infected hNPCs; format: cell-based; conditions: for IC50: read-out: Caspase 3 (IC50, uM) NPCs; for Emax: read-out: Caspase 3 (efficacy, %) NPCs
Description: Caspase-Glo 3/7 assay kit (catalog number G8092; Promega, Madison, Wis.) was used to detect caspase 3/7 activity. Reagents were reconstituted as described in the protocol from the manufacturer. Polystyrene plates (384-well and 1536-well; regular tissue culture treated and PDL coated) were purchased from Greiner Bio-One (Monroe, N.C.). Cells were seeded in 384- and 1536-well assay plates and cultured at 37° C. with 5% CO2 for 16 hours. ZIKV solution was added to cells, followed by incubation at 37° C. with 5% CO2 for 6 hours. Caspase-Glo 3/7 was added to each well, unless otherwise specified, and incubated at room temperature for 30 minutes. The luminescence intensity of the assay plates was measured using a ViewLux plate reader (PerkinElmer). Data were normalized by using the cell-containing wells without ZIKV as a negative control (0% induction of caspase 3/7 activity) and wells containing ZIKV infected cells that induced caspase 3/7 activity were used as a positive control (100% induction of caspase 3/7 activity).
Human NPCs were seeded onto PDL coated 1536-well assay plates at 250 cells per 3 μl/well and incubated at 37° C. in 5% CO2 for 16 hours. Test compounds dissolved in DMSO were transferred to assay plates at a volume of 23 nl/well by an automated pintool workstation (Wako Automation, San Diego, Calif.). Compounds were incubated with cells for 30 minutes at 37° C. in 5% CO2, immediately followed by the addition of 2 μl/well of ZIKV. Incubation time of compound-treated cells with ZIKV varied based on assay format. Experiments measuring virus-induced caspase 3/7 activity required a 6 hour incubation of ZIKV in the presence compounds at 37° C. in 5% CO2. Following this incubation, 3.5 μl/well of caspase 3/7 reagent mixture was added to assay plates. The plates were incubated for 30 minutes at room temperature, and the resultant luminescence signal was measured using a ViewLux plate reader (Perkin Elmer). Experiments measuring virus-induced cell death required a 72-hour incubation of ZIKV in the presence of compounds at 37° C. in 5% CO2. Following this incubation, 3.5 μl/well of ATP content detection reagent was added to assay plates, incubated for 30 minutes at the room temperature, and the resultant luminescence signal was measured in a ViewLux plate reader.
Caspase-Glo 3/7 assay kit (Promega) was used to detect caspase 3/7 activity. Reagents were reconstituted as described in the protocol from the manufacturer. Cells were seeded in 384- and 1536-well assay plates and cultured at 37° C. with 5% CO2 for 16 hours. ZIKV solution was added to cells, followed by incubation at 37° C. with 5% CO2 for 6 hours. Caspase-Glo 3/7 was added to each well at a 1:1 ratio, unless otherwise specified, and incubated at room temperature for 30 minutes. The luminescence intensity of the assay plates was measured using a ViewLux plate reader (PerkinElmer). Data was normalized by using the cell-containing wells without ZIKV as a negative (0% induction of caspase 3/7 activity) control and wells containing ZIKV infected cells that induced caspase 3/7 activity were used as a positive control (100% induction of caspase 3/7 activity).
Human NPCs were seeded onto PDL coated 1536-well assay plates at 250 cells per 3 μl/well and incubated at 37° C. in 5% CO2 for 16 hours. Test compounds dissolved in DMSO were transferred to assay plates at a volume of 23 nl/well by an automated pintool workstation (Wako Automation, San Diego, Calif.). Compounds were incubated with cells for 30 minutes at 37° C. in 5% CO2, immediately followed by the addition of 2 μl/well of ZIKV. Incubation time of compound-treated cells with ZIKV varied based on assay format. Experiments measuring virus induced caspase 3/7 activity required a 6 hour incubation of ZIKV in the presence compounds at 37° C. in 5% CO2. […]

[4] = test system: ZIKV-induced cell death in human astrocytes; assay: ATP cell viability assay for ZIKV-induced cell death, human astrocytes; format: cell-based; conditions: for IC50: read-out: Cell viability (IC50, uM) Astrocyte
[5] = test system: ZIKV-induced cell death in SNB-19 cells; assay: ATP cell viability assay for ZIKV-induced cell death, SNB-19 cells; format: cell-based, human; conditions: for IC50: Homo sapiens
Description: (§3) The reagent was reconstituted and prepared as described by the manufacturer. In order to measure the cell death caused by ZIKV infection, cells were cultured for 16 hours at 37° C. with 5% CO2 in assay plates, followed by the addition of ZIKV solution and incubation at 37° C. with 5% CO2 for 72 hours. ATPlite, the ATP monitoring reagent, was then added to the assay plates and they were incubated for 15 minutes. The resulting luminescence was measured using the ViewLux plate reader (Perkin Elmer). Data were normalized using the wells without cells as a control for 100% cell killing, and cell-containing wells without ZIKV infection were used as full cell viability (0% cell killing). […]
as §3, with “The ATPlite luminescence assay system assay kit (PerkinElmer) was used to determine cell viability. The reagent” for “The reagent”, “by the manufacture. In order” for “by the manufacturer. In order”, “followed by addition of” for “followed by the addition of”, “plates and incubated for” for “plates and they were incubated for”, “Elmer). Data was normalized using” for “Elmer). Data were normalized using”

[6] = Astrocyte, ZIKV-infected human astrocytes
[7] = Homo sapiens, ZIKV-infected SNB-19 cells, read-out: Caspase 3 (IC50, uM) SNB-19
[8] = Homo sapiens, ZIKV-infected SNB-19 cells, read-out: Caspase 3 (efficacy, %) SNB-19
[9] = Homo sapiens, ZIKV-infected hNPCs

Row | IC50 [1, 6] [µM] | IC50 [2, 7] [µM] | IC50 [3, 9] [µM] | Compound | Emax [1, 6] [%] | Emax [2, 8] [%] | Emax [3, 9] [%] | Cell viability (efficacy, %) Astrocyte ([4]; ZIKV-infected human astrocytes) [%] | Cell viability (efficacy, %) SNB-19 ([5]; ZIKV-infected SNB-19 cells) [%] | further results
1 | – | – | – | COc1cccc2c1C(=O)c1c(O)c3c(c(O)c1C2=O)C[C@@](O)(C(=O)CO)C[C@@H]3O[C@H]1C[C@H](N)[C@@H](O)[C@H](C)O1 [Epirubicin hydrochloride] | – | – | – | – | – | IC50 (ZIKV MR766 NS1): 0.492 µM
2 | – | – | – | CC[C@@H]1C(=O)N(C)c2cnc(Nc3ccc(C(=O)NC4CCN(C)CC4)cc3OC)nc2N1C1CCCC1 [BI-2536] | – | – | – | – | – | Tox IC50 (HEK293 cells): No
3 | – | – | – | C=CC[C@@H]1/C=C(\C)C[C@H](C)C[C@H](OC)[C@H]2O[C@@](O)(C(=O)C(=O)N3CCCC[C@H]3C(=O)O[C@H](/C(C)=C/[C@@H]3CC[C@@H](O)[C@H](OC)C3)[C@H](C)[C@@H](O)CC1=O)[C@H](C)C[C@@H]2OC [FK-506] | – | – | – | – | – | IC50 (ZIKV MR766 NS1): 0.104 µM
4 | 16.4 | 17.3 | 10.9 | COc1ccc([C@@H]2CC(=O)c3c(O)cc(O)cc3O2)cc1O [Hesperetin] | 72.7 | 86 | 79.6 | 0.0 | 0.0 | –
5 | 9.2 | 13.8 | 9.75 | O=C(O)[C@@H](c1ccc(OCc2ccc3ccccc3n2)cc1)C1CCCC1 [Veliflapon] | 65.9 | 70 | 74.3 | 0.0 | 0.0 | –
6 | – | – | – | Nc1ccc(-c2ccc3ccccc3n2)cc1 [BF-170 hydrochloride] | – | – | – | 65.8 | 0.0 | Caspase 3 (efficacy, %) Astrocyte ([1]; ZIKV-infected human astrocytes): 118%; IC50 ([1]; ZIKV-infected human astrocytes): 4.61 µM; Caspase 3 (efficacy, %) SNB-19 ([2]; ZIKV-infected SNB-19 cells): 104%; IC50 ([2]; ZIKV-infected SNB-19 cells, read-out: Caspase 3 (IC50, uM) SNB-19): 6.15 µM; Caspase 3 (efficacy, %) NPCs ([3]; ZIKV-infected hNPCs): 92.7%; IC50 ([3]; ZIKV-infected hNPCs): 4.11 µM; IC50 ([4]; ZIKV-infected human astrocytes): 6.15 µM
7 | 8.2 | 6.9 | 6.9 | O=C(Nc1ccc(OC(F)(F)F)cc1)c1sccc1NCc1ccnc2ccccc12 [OSI-930] | 91.5 | 114 | 96.9 | 0.0 | 71.2 | IC50 ([5]; ZIKV-infected SNB-19 cells, read-out: Cell viability (IC50, uM) SNB-19): 3.08 µM
8 | – | – | – | COc1cccc2c1C(=O)c1c(O)c3c(c(O)c1C2=O)C[C@@](O)(C(=O)CO)C[C@@H]3O[C@H]1C[C@H](N2CCO[C@H](OC)C2)[C@H](O)[C@H](C)O1 [Nemorubicin] | – | – | – | 146 | 117 | IC50 ([1]; Homo sapiens, Astrocyte): 15.5 µM; Emax ([1]; Homo sapiens, Astrocyte): 42.6%; IC50 ([2]; Homo sapiens, SNB-19, read-out: Caspase 3 (IC50, uM) SNB-19): 30.8 µM; Emax ([2]; Homo sapiens, SNB-19, read-out: Caspase 3 (efficacy, %) SNB-19): 53.1%; Emax ([3]; Homo sapiens): 82.9%; IC50 ([4]; Homo sapiens, Astrocyte): 0.87 µM; IC50 ([5]; SNB-19, read-out: Cell viability (IC50, uM) SNB-19): 0.41 µM
9 | 25.9 | 23.1 | 17.3 | O=c1c(-c2ccc(O)cc2)coc2cc(O[C@@H]3O[C@H](CO)[C@@H](O)[C@H](O)[C@H]3O)cc(O)c12 [Genistin] | 60.2 | 58.1 | 58.6 | 0.0 | 0.0 | –
10 | – | – | – | Malachite green oxalate | – | – | – | – | – | Caspase 3 (efficacy, %) Astrocyte ([1]; ZIKV-infected human astrocytes): 54.0%; IC50 ([1]; ZIKV-infected human astrocytes): 17.3 µM; Caspase 3 (efficacy, %) SNB-19 ([2]; ZIKV-infected SNB-19 cells): 0.0%; Caspase 3 (efficacy, %) NPCs ([3]; ZIKV-infected hNPCs): 62.7%; IC50 ([3]; ZIKV-infected hNPCs): 21.8 µM; Cell viability (efficacy, %) Astrocyte [4]: 0.0%; Cell viability (efficacy, %) SNB-19 [5]: 0.0%

Row | Compound | IC50 [1, 6] [µM] | IC50 [2, 7] [µM] | IC50 [3, 9] [µM] | Emax [1, 6] [%] | Emax [2, 8] [%] | Emax [3, 9] [%] | Cell viability (efficacy, %) Astrocyte ([4]; ZIKV-infected human astrocytes) [%] | Cell viability (efficacy, %) SNB-19 ([5]; ZIKV-infected SNB-19 cells) [%] | further results
11 | CCC[S+]([O-])c1ccc2[nH]c(NC(=O)OC)nc2c1 (centres unmarked) [Albendazole oxide] | 15.5 | 21.8 | 12.3 | 78.8 | 86 | 88.1 | 0.0 | 0.0 | –
12 | CN1CC[C@@]2(C)c3cc(OC(=O)Nc4ccccc4)ccc3N(C)[C@@H]12 [Phenserine] | 25.9 | 19.5 | 25.9 | 47.4 | 38.4 | 51.5 | 0.0 | 0.0 | –

From US10940188B2, “Compounds and methods for treatment and prevention of Flavivirus infection” (priority 2016, dated 2021)
